# pIC50: −log10 of the molar value.
# Target: T1, 3-hydroxy-3-methylglutaryl-coenzyme A reductase (Rattus norvegicus, UniProt P51639)
# T1 sequence (P51639 whole entry): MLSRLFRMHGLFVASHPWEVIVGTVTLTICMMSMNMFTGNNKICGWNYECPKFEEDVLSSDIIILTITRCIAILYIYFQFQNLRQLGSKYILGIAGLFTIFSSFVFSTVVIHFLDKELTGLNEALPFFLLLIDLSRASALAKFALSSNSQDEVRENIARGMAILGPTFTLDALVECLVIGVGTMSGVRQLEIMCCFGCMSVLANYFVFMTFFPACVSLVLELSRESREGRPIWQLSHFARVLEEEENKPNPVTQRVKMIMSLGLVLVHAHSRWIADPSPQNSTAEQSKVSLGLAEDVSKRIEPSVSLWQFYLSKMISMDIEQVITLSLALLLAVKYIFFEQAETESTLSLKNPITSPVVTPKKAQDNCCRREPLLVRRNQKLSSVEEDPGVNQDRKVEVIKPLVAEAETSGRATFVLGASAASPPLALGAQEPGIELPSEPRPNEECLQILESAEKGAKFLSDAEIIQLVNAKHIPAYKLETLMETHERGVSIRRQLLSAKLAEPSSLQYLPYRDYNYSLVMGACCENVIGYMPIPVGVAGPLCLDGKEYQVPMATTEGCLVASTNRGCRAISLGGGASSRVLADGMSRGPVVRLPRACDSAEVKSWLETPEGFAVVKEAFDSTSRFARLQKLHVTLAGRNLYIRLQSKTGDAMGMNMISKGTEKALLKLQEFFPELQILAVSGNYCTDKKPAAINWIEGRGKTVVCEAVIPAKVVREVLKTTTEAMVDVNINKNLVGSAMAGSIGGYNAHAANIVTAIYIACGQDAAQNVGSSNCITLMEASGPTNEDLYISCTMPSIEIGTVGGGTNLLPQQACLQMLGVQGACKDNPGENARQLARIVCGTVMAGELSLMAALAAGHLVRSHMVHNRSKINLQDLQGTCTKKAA
# Assay: HMG-CoA Reductase Enzyme Assay and Inhibition of Cellular Cholesterol Synthesis Assay
# Conditions: pH 7.2; 37 °C
# Experimental: Enzyme Assay for HMG-CoA reductase was based on the conversion of isotopically labeled HMG-CoA to mevalonic acid using rat liver microsomes as enzyme source. The product, [14C]-mevalonic acid was lactonized and separated from excess substrate via an anion ion exchange resin column, and radioactivity was counted on a scintillation counter. The IC50 values were calculated with GraphPad software (Prism). The cellular assay EC50/IC50 values were obtained from inhibition of cholesterol synthesis in rat hepatocyte.
row,SMILES,pIC50
1,CC(C)c1nc(N(C)S(C)(=O)=O)nc(-c2ccc(F)cc2)c1/C=C/[C@@H](O)C[C@@H](O)CC(=O)O,9.52
2,"CC(C)c1c(C(=O)N(C)Cc2cccc(F)c2F)nn(-c2ccc(F)cc2)c1CC[C@@H](O)C[C@@H](O)CC(=O)O [sodium (3R,5R)-7-(3-{[(2,3-difluorophenyl)methyl](methyl)carbamoyl}-1-(4-fluorophenyl)-4-(propan-2-yl)-1H-pyrazol-5-yl)-3,5-dihydroxyheptanoate]",9.22
3,"Cc1ccc(CNC(=O)c2nn(-c3ccc(F)cc3)c(CC[C@@H](O)C[C@@H](O)CC(=O)O)c2C(C)C)cc1 [pyrazole-based inhibitor, 35]",9.05
4,"CC(C)c1c(C(=O)NCc2ccccc2)nn(-c2ccc(F)cc2)c1CC[C@@H](O)C[C@@H](O)CC(=O)O [(3R,5R)-7-[3-(benzylcarbamoyl)-1-(4-fluorophenyl)-4-(propan-2-yl)-1H-pyrazol-5-yl]-3,5-dihydroxyheptanoic acid]",9.52
5,"COCc1c(C(C)C)nc(C(C)C)c(/C=C/[C@@H](O)C[C@@H](O)CC(=O)O)c1-c1ccc(F)cc1 [(3R,5S,6E)-7-[4-(4-fluorophenyl)-5-(methoxymethyl)-2,6-bis(propan-2-yl)pyridin-3-yl]-3,5-dihydroxyhept-6-enoic acid]",8.77
6,"CC(C)c1c(C(=O)N2CCCC2c2ccccc2)nn(-c2ccc(F)cc2)c1CC[C@@H](O)C[C@@H](O)CC(=O)O (stereo partly drawn) [sodium (3R,5R)-7-[1-(4-fluorophenyl)-3-[(2-phenylpyrrolidin-1-yl)carbonyl]-4-(propan-2-yl)-1H-pyrazol-5-yl]-3,5-dihydroxyheptanoate]",8.40
7,"CC(C)c1c(C(=O)N(C)Cc2ccc(F)cc2F)nn(-c2ccc(F)cc2)c1CC[C@@H](O)C[C@@H](O)CC(=O)O [sodium (3R,5R)-7-(3-{[(2,4-difluorophenyl)methyl](methyl)carbamoyl}-1-(4-fluorophenyl)-4-(propan-2-yl)-1H-pyrazol-5-yl)-3,5-dihydroxyheptanoate]",8.68
8,"CC(C)c1c(C(=O)NCc2cccc(C#N)c2)nn(-c2ccc(F)cc2)c1CC[C@@H](O)C[C@@H](O)CC(=O)O [sodium (3R,5R)-7-(3-{[(3-cyanophenyl)methyl]carbamoyl}-1-(4-fluorophenyl)-4-(propan-2-yl)-1H-pyrazol-5-yl)-3,5-dihydroxyheptanoate]",8.85
9,"CC[C@H](C)C(=O)O[C@H]1C[C@H](O)C=C2C=C[C@H](C)[C@H](CC[C@@H](O)C[C@@H](O)CC(=O)O)[C@H]21 [(3R,5R)-7-[(1S,2S,6S,8S,8aR)-6-hydroxy-2-methyl-8-{[(2S)-2-methylbutanoyl]oxy}-1,2,6,7,8,8a-hexahydronaphthalen-1-yl]-3,5-dihydroxyheptanoic acid]",7.77
10,"CC(C)c1c(C(=O)N2CCCCC2c2ccccc2)nn(-c2ccc(F)cc2)c1CC[C@@H](O)C[C@@H](O)CC(=O)O (stereo partly drawn) [sodium (3R,5R)-7-[1-(4-fluorophenyl)-3-[(2-phenylpiperidin-1-yl)carbonyl]-4-(propan-2-yl)-1H-pyrazol-5-yl]-3,5-dihydroxyheptanoate]",8.96
11,"COCc1cccc(CNC(=O)c2nn(-c3ccc(F)cc3)c(CC[C@@H](O)C[C@@H](O)CC(=O)O)c2C(C)C)c1 [sodium (3R,5R)-7-[1-(4-fluorophenyl)-3-({[3-(methoxymethyl)phenyl]methyl}carbamoyl)-4-(propan-2-yl)-1H-pyrazol-5-yl]-3,5-dihydroxyheptanoate]",9.15

# The next lines start with the values.
row,pIC50,SMILES
1,9.52,"COc1ccc(CN(C)C(=O)c2nn(-c3ccc(F)cc3)c(CC[C@@H](O)C[C@@H](O)CC(=O)O)c2C(C)C)cc1 [sodium (3R,5R)-7-[1-(4-fluorophenyl)-3-{[(4-methoxyphenyl)methyl](methyl)carbamoyl}-4-(propan-2-yl)-1H-pyrazol-5-yl]-3,5-dihydroxyheptanoate]"
2,7.64,"CC(C)c1c(C(=O)NCc2ccc(C(=O)N(C)C)cc2)nn(-c2ccc(F)cc2)c1CC[C@@H](O)C[C@@H](O)CC(=O)O [sodium (3R,5R)-7-[3-({[4-(dimethylcarbamoyl)phenyl]methyl}carbamoyl)-1-(4-fluorophenyl)-4-(propan-2-yl)-1H-pyrazol-5-yl]-3,5-dihydroxyheptanoate]"
3,9.15,"CC(C)c1c(C(=O)NCc2ccc(F)cc2)nn(-c2ccc(F)cc2)c1CC[C@@H](O)C[C@@H](O)CC(=O)O [sodium (3R,5R)-7-[1-(4-fluorophenyl)-3-{[(4-fluorophenyl)methyl]carbamoyl}-4-(propan-2-yl)-1H-pyrazol-5-yl]-3,5-dihydroxyheptanoate]"
4,9.40,"CC(C)c1c(C(=O)N2CCCC(c3ccccc3)C2)nn(-c2ccc(F)cc2)c1CC[C@@H](O)C[C@@H](O)CC(=O)O (stereo partly drawn) [sodium (3R,5R)-7-[1-(4-fluorophenyl)-3-[(3-phenylpiperidin-1-yl)carbonyl]-4-(propan-2-yl)-1H-pyrazol-5-yl]-3,5-dihydroxyheptanoate]"
5,9.70,"CC(C)c1c(C(=O)N(C)Cc2ccccc2)nn(-c2ccc(F)cc2)c1CC[C@@H](O)C[C@@H](O)CC(=O)O [sodium (3R,5R)-7-{3-[benzyl(methyl)carbamoyl]-1-(4-fluorophenyl)-4-(propan-2-yl)-1H-pyrazol-5-yl}-3,5-dihydroxyheptanoate]"
6,9.22,"Cc1cccc(CN(C)C(=O)c2nn(-c3ccc(F)cc3)c(CC[C@@H](O)C[C@@H](O)CC(=O)O)c2C(C)C)c1 [sodium (3R,5R)-7-[1-(4-fluorophenyl)-3-{methyl[(3-methylphenyl)methyl]carbamoyl}-4-(propan-2-yl)-1H-pyrazol-5-yl]-3,5-dihydroxyheptanoate]"
7,9.30,"CC(C)c1c(C(=O)N(C)Cc2ccc(F)cc2)nn(-c2ccc(F)cc2)c1CC[C@@H](O)C[C@@H](O)CC(=O)O [sodium (3R,5R)-7-[1-(4-fluorophenyl)-3-{[(4-fluorophenyl)methyl](methyl)carbamoyl}-4-(propan-2-yl)-1H-pyrazol-5-yl]-3,5-dihydroxyheptanoate]"
8,8.68,"Cc1ccccc1CN(C)C(=O)c1nn(-c2ccc(F)cc2)c(CC[C@@H](O)C[C@@H](O)CC(=O)O)c1C(C)C [sodium (3R,5R)-7-[1-(4-fluorophenyl)-3-{methyl[(2-methylphenyl)methyl]carbamoyl}-4-(propan-2-yl)-1H-pyrazol-5-yl]-3,5-dihydroxyheptanoate]"
9,9.52,"CC(C)c1c(C(=O)N2CCC[C@H](c3ccccc3)C2)nn(-c2ccc(F)cc2)c1CC[C@@H](O)C[C@@H](O)CC(=O)O [sodium (3R,5R)-7-[1-(4-fluorophenyl)-3-{[(3R)-3-phenylpiperidin-1-yl]carbonyl}-4-(propan-2-yl)-1H-pyrazol-5-yl]-3,5-dihydroxyheptanoate]"
10,9.40,"COc1ccc(CNC(=O)c2nn(-c3ccc(F)cc3)c(CC[C@@H](O)C[C@@H](O)CC(=O)O)c2C(C)C)cc1 [sodium (3R,5R)-7-[1-(4-fluorophenyl)-3-{[(4-methoxyphenyl)methyl]carbamoyl}-4-(propan-2-yl)-1H-pyrazol-5-yl]-3,5-dihydroxyheptanoate]"
11,9.70,"CC(C)c1c(C(=O)N(C)Cc2cccc(F)c2)nn(-c2ccc(F)cc2)c1CC[C@@H](O)C[C@@H](O)CC(=O)O [sodium (3R,5R)-7-[1-(4-fluorophenyl)-3-{[(3-fluorophenyl)methyl](methyl)carbamoyl}-4-(propan-2-yl)-1H-pyrazol-5-yl]-3,5-dihydroxyheptanoate]"
12,8.26,"CCN(Cc1ccccc1)C(=O)c1nn(-c2ccc(F)cc2)c(CC[C@@H](O)C[C@@H](O)CC(=O)O)c1C(C)C [sodium (3R,5R)-7-{3-[benzyl(ethyl)carbamoyl]-1-(4-fluorophenyl)-4-(propan-2-yl)-1H-pyrazol-5-yl}-3,5-dihydroxyheptanoate]"
13,8.74,"Cc1ccc(CN(C)C(=O)c2nn(-c3ccc(F)cc3)c(CC[C@@H](O)C[C@@H](O)CC(=O)O)c2C(C)C)cc1 [sodium (3R,5R)-7-[1-(4-fluorophenyl)-3-{methyl[(4-methylphenyl)methyl]carbamoyl}-4-(propan-2-yl)-1H-pyrazol-5-yl]-3,5-dihydroxyheptanoate]"
14,8.00,"CC(C)c1c(C(=O)N(Cc2ccccc2)C(C)C)nn(-c2ccc(F)cc2)c1CC[C@@H](O)C[C@@H](O)CC(=O)O [sodium (3R,5R)-7-{3-[benzyl(propan-2-yl)carbamoyl]-1-(4-fluorophenyl)-4-(propan-2-yl)-1H-pyrazol-5-yl}-3,5-dihydroxyheptanoate]"
15,9.30,"CC(C)c1c(C(=O)N(C)Cc2ccccc2F)nn(-c2ccc(F)cc2)c1CC[C@@H](O)C[C@@H](O)CC(=O)O [sodium (3R,5R)-7-[1-(4-fluorophenyl)-3-{[(2-fluorophenyl)methyl](methyl)carbamoyl}-4-(propan-2-yl)-1H-pyrazol-5-yl]-3,5-dihydroxyheptanoate]"

# Same assay, conditions: pH 7.2; 37 °C; read-out: IC50
row,pIC50,SMILES
1,7.80,"Cc1ccccc1CN(C)C(=O)c1nn(-c2ccc(F)cc2)c(CC[C@@H](O)C[C@@H](O)CC(=O)O)c1C(C)C [sodium (3R,5R)-7-[1-(4-fluorophenyl)-3-{methyl[(2-methylphenyl)methyl]carbamoyl}-4-(propan-2-yl)-1H-pyrazol-5-yl]-3,5-dihydroxyheptanoate]"

# Reference: BindingDB's records for doi:10.1021/jm070849r (Pfizer, 2008)
